Test results: ChEMBL document CHEMBL1130170, “Orally active trifluoromethyl ketone inhibitors of human leukocyte elastase” (J Med Chem, 1997)
Where a SMILES comes first, the peptide text is derived from it. [ ]: non-standard residue; d: D form. The star is where a group is joined. ξ: configuration not given here. Cbz = O=C(OCc1ccccc1)*; ξV = CC(C)C(N)C(=O)O; CF3 = FC(F)(F)*; Moc = COC(=O)*

Key:
[1] = system: Cricetinae gen. sp.; assay: Percent inhibition of elastase-induced lung damage by 10 mg/kg dosed orally, 30 minutes prior to the instillation of 50 ug of elastase; assay type: functional, Cricetulus griseus; details: Cricetinae gen. sp., po
[2] = biological target: T1, Neutrophil elastase (Homo sapiens, UniProt P08246); assay: Binding affinity for human leukocyte elastase
T1 sequence (P08246 whole entry): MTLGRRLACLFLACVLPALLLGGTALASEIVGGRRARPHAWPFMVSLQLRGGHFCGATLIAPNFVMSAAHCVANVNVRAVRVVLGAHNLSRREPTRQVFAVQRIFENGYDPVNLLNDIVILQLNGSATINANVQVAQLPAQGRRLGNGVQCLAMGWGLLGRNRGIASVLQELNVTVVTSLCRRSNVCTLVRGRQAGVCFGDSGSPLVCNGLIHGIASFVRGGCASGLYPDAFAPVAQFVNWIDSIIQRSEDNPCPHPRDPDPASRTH

[3] = system: Cricetinae gen. sp.; assay: Effective dose in the Acute Hemarrhagic Assay model after oral administration; assay type: functional, Cricetulus griseus

SMILES	Ki [2] [nM]	inhibition in vivo at 10 mg/kg [1] [%]	ED50 [3] [mg/kg]
COc1ccc(C(=O)N[C@H](C(=O)N2CCC[C@H]2C(=O)N[C@H](C(=O)C(F)(F)CN)C(C)C)C(C)C)cc1	–	10	–
COC(=O)c1ccc2oc(C(=O)[C@@H](NC(=O)[C@@H]3CCCN3C(=O)[C@@H](NC(=O)c3ccc(OC)cc3)C(C)C)C(C)C)nc2c1	0.65	0	–
CCCCOC(=O)NCC(F)(F)C(=O)[C@@H](NC(=O)[C@@H]1CCCN1C(=O)[C@@H](NC(=O)Oc1ccccc1)C(C)C)C(C)C	0.35	0	–
CC(C)[C@H](NC(=O)Oc1ccccc1)C(=O)N1CCC[C@H]1C(=O)N[C@H](C(=O)C(F)(F)CNCc1ccccc1)C(C)C	–	18	–
COC(=O)c1ccc2oc(C(=O)[C@@H](NC(=O)[C@@H]3CCCN3C(=O)[C@@H](NC(=O)Oc3ccccc3)C(C)C)C(C)C)nc2c1	0.64	12	–
CC(C)[C@H](NC(=O)Oc1ccccc1)C(=O)N1CCC[C@H]1C(=O)N[C@H](C(=O)C(F)(F)CN)C(C)C	–	45	–
CCCCOC(=O)NCC(F)(F)C(=O)[C@@H](NC(=O)[C@@H]1CCCN1C(=O)[C@@H](NC(=O)c1ccc(OC)cc1)C(C)C)C(C)C	3.4	24	–
COc1ccc(C(=O)N[C@H](C(=O)N2CCC[C@H]2C(=O)N[C@H](C(=O)C(F)(F)CNCc2ccccc2)C(C)C)C(C)C)cc1	–	17	–
CCOC(=O)N[C@H](C(=O)N1CCC[C@H]1C(=O)N[C@H](C(=O)C(F)(F)F)C(C)C)C(C)C	43	74	–
COc1ccc(C(=O)N[C@H](C(=O)N2CCC[C@H]2C(=O)N[C@H](C(=O)c2nc3cc(NC(C)=O)ccc3o2)C(C)C)C(C)C)cc1	8	11	–
CC(C)[C@H](NC(=O)OCc1ccccc1)C(=O)N1CCC[C@H]1C(=O)N[C@H](C(=O)C(F)(F)C(N)=O)C(C)C	–	17	–
CNC(=O)C(F)(F)C(=O)[C@@H](NC(=O)[C@@H]1CCCN1C(=O)[C@@H](NC(=O)Oc1ccccc1)C(C)C)C(C)C	–	80	–
CNC(=O)C(F)(F)C(=O)[C@@H](NC(=O)[C@@H]1CCCN1C(=O)[C@@H](NC(=O)OCc1ccccc1)C(C)C)C(C)C	–	7	–
COC(=O)c1ccc2nc(C(=O)[C@@H](NC(=O)[C@@H]3CCCN3C(=O)[C@@H](NC(=O)Oc3ccccc3)C(C)C)C(C)C)oc2c1	0.64	27	–
CC(C)[C@H](NC(=O)OCc1ccccc1)C(=O)N1CCC[C@H]1C(=O)N[C@H](C(=O)C(F)(F)CNCc1ccccc1)C(C)C	–	0	–
CC(C)[C@H](NC(=O)OCc1ccccc1)C(=O)N1CCC[C@H]1C(=O)N[C@H](C(=O)C(F)(F)F)C(C)C (Cbz-Val-Pro-Val-CF3)	–	42	–
COC(=O)N[C@H](C(=O)N1CCC[C@H]1C(=O)NC(C(=O)C(F)(F)F)C(C)C)C(C)C (stereo partly drawn) (Moc-Val-Pro-[ξV]-CF3)	–	92	–
COc1ccc(C(=O)N[C@H](C(=O)N2CCC[C@H]2C(=O)N[C@H](C(=O)C(F)(F)F)C(C)C)C(C)C)cc1 (stereo in doubt; 1a)	–	70	–

The next lines start with results.

Ki [2] [nM]	SMILES	inhibition in vivo at 10 mg/kg [1] [%]	ED50 [3] [mg/kg]
8.9	CCCNC(=O)C(F)(F)C(=O)[C@@H](NC(=O)[C@@H]1CCCN1C(=O)[C@@H](NC(=O)c1ccc(OC)cc1)C(C)C)C(C)C	17	–
0.35	CC(C)[C@H](NC(=O)Oc1ccccc1)C(=O)N1CCC[C@H]1C(=O)N[C@H](C(=O)C(F)(F)CNC(=O)c1cccnc1)C(C)C	46	–
4.7	CC(C)[C@H](NC(=O)[C@@H]1CCCN1C(=O)[C@@H](NC(=O)OCc1ccccc1)C(C)C)C(=O)c1nc2ccccc2o1	0	–
3.1	COc1ccc(C(=O)N[C@H](C(=O)N2CCC[C@H]2C(=O)N[C@H](C(=O)C(F)(F)C(=O)NCc2ccccn2)C(C)C)C(C)C)cc1	43	–
6.4	COc1ccc(C(=O)N[C@H](C(=O)N2CCC[C@H]2C(=O)N[C@H](C(=O)C(F)(F)CNC(=O)c2ccccc2)C(C)C)C(C)C)cc1	18	–
2.3	CC(=O)NCC(F)(F)C(=O)[C@@H](NC(=O)[C@@H]1CCCN1C(=O)[C@@H](NC(=O)Oc1ccccc1)C(C)C)C(C)C	42	–
33	CC(C)OC(=O)N[C@H](C(=O)N1CCC[C@H]1C(=O)NC(C(=O)C(F)(F)F)C(C)C)C(C)C (stereo partly specified)	69	–
1.7	CC(C)[C@H](NC(=O)Oc1ccccc1)C(=O)N1CCC[C@H]1C(=O)N[C@H](C(=O)C(F)(F)C(=O)NCc1ccccn1)C(C)C	69	–
1.1	CCCCOC(=O)NCC(F)(F)C(=O)[C@@H](NC(=O)[C@@H]1CCCN1C(=O)[C@@H](NC(=O)OCc1ccccc1)C(C)C)C(C)C	0	–
0.58	COC(=O)c1ccc2oc(C(=O)[C@@H](NC(=O)[C@@H]3CCCN3C(=O)[C@@H](NC(=O)OCc3ccccc3)C(C)C)C(C)C)nc2c1	34	–
1.9	CC(C)[C@H](NC(=O)OC1CCCC1)C(=O)N1CCC[C@H]1C(=O)N[C@H](C(=O)C(F)(F)F)C(C)C	43	–
17	CC(C)[C@H](NC(=O)COc1ccccc1)C(=O)N1CCC[C@H]1C(=O)N[C@H](C(=O)C(F)(F)F)C(C)C	8	–
20	CC(C)COC(=O)N[C@H](C(=O)N1CCC[C@H]1C(=O)N[C@H](C(=O)C(F)(F)F)C(C)C)C(C)C	3	–
3.8	CNC(=O)C(F)(F)C(=O)[C@@H](NC(=O)[C@@H]1CCCN1C(=O)[C@@H](NC(=O)c1ccc(OC)cc1)C(C)C)C(C)C	25	–
0.06	CC(C)[C@H](NC(=O)c1ccc(C(=O)NS(=O)(=O)c2ccccc2)cc1)C(=O)N1CCC[C@H]1C(=O)N[C@H](C(=O)C(F)(F)C(=O)NCCc1ccccc1)C(C)C	–	–
5.8	CC(C)OC(=O)N[C@H](C(=O)N1CCC[C@H]1C(=O)N[C@H](C(=O)C(F)(F)F)C(C)C)C(C)C	80	3
58	COc1ccc(C(=O)N[C@H](C(=O)N2CCC[C@H]2C(=O)N[C@@H](C(=O)C(F)(F)C(=O)NCc2ccccn2)C(C)C)C(C)C)cc1	31	–
1.5	CC(C)[C@H](NC(=O)Oc1ccccc1)C(=O)N1CCC[C@H]1C(=O)N[C@H](C(=O)C(F)(F)F)C(C)C	93	–
